45 molecules from patent publication US10213415B2, “Compounds as opioid receptor modulators” (JANSSEN PHARMACEUTICA NV, priority 2004, dated 2019) can be followed below.

T2 sequence (P35372 whole entry): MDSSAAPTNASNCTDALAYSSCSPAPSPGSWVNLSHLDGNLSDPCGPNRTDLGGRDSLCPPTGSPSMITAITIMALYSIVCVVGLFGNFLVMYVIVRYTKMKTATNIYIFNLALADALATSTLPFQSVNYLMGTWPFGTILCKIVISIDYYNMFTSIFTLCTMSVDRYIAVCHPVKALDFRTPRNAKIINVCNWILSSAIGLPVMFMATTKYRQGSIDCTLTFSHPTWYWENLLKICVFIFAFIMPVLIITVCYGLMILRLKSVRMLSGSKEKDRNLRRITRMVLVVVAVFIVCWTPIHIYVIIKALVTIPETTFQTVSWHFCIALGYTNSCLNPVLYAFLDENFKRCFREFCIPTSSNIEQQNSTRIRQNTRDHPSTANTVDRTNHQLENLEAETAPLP

The target of one assay is T1, mu opioid receptor (CHO-hMOR cell membranes) (Homo sapiens, UniProt P35372).
T1 construct: purchased Receptor Biology, Inc. (Baltimore, Md.); host or cells: CHO cells (recombinant expression)
T1 sequence (P35372 whole entry): as above
Put plainly: Mu Opioid Receptor Functional Assay: [35S]GTPγS Binding in CHO-hMOR Cell Membranes, Versions 1 and 2. It counts as biochemical. As to conditions: version 2, % inhibition of agonist-stimulated GTPγS binding. As to the method: CHO-hMOR cell membranes were purchased from Receptor Biology, Inc. (Baltimore, Md.). About 10 mg/ml of membrane protein was suspended in 10 mM TRIS-HCl pH 7.2, 2 mM EDTA, 10% sucrose, and the suspension kept on ice. One ml of membranes was added to 15 ml cold binding assay buffer containing 50 mM HEPES, pH 7.6, 5 mM MgCl2, 100 mM NaCl, 1 mM DTT and 1 mM EDTA. The membrane suspension was homogenized with a Polytron and centrifuged at 3,000 rpm for 10 min. The supernatant was then centrifuged at 18,000 rpm for 20 min. The pellet was resuspended in 10 ml assay buffer with a Polytron.
The membranes were preincubated with wheat germ agglutinin coated SPA beads (Amersham) at 25° C. for 45 min in the assay buffer. The SPA bead (5 mg/ml) coupled membranes (10 μg/ml) were then incubated with 0.5 nM [^35S]GTPγS in the assay buffer. […] A range of concentrations of receptor agonists was used to stimulate [^35S]GTPγS binding. Both basal and non-specific binding was tested in the absence of agonist; non-specific binding determination included 10 μM unlabeled GTPγS.
Compounds were tested for function as antagonists by evaluating their potential to inhibit agonist-stimulated GTPγS binding. Radioactivity was quantified on a Packard TopCount. The following parameters were calculated:
[formula] % Inhibition=(% stimulation by 1 μM SNC80−% stimulation by 1 μM SNC80 in presence of test compound)×100/(% Stimulation by 1 μM SNC80−100)
EC50 values were calculated using GraphPad Prism.
Background: Binding of GTPγS marks nucleotide exchange on a G protein.
For `COC(=O)N[C@@H](Cc1c(C)cc(C(N)=O)cc1C)C(=O)N(Cc1ccc(OC)c(C(=O)OC)c1)[C@@H](C)c1nc(-c2ccccc2)c[nH]1` [Cpd 310], the “MOR GTP binding assay_v2 (% I)” value is listed as 51.00%.
As for `COC(=O)c1ccnc(CN(C(=O)[C@@H](N)Cc2c(C)cc(C(N)=O)cc2C)[C@@H](C)c2nc(-c3ccccc3)c[nH]2)c1` [Cpd 312], the “MOR GTP binding assay_v2 (% I)” value is on record as 35.00%.
On the same count and under the same terms, the value for `Cc1cc(C(N)=O)cc(C)c1C[C@H](N)C(=O)N(Cc1ccnc(C(=O)O)c1)[C@@H](C)c1nc(-c2ccccc2)c[nH]1` [Cpd 316] was 76%.

The same assay, now with this note: version 2, read-out: MOR GTP binding assay v2 EC50.
As for `COC(=O)N[C@@H](Cc1c(C)cc(C(N)=O)cc1C)C(=O)N(Cc1ccc(OC)c(C(=O)OC)c1)[C@@H](C)c1nc(-c2ccccc2)c[nH]1` [Cpd 310], the concentration for a half-maximal effect (EC50) (usually the concentration at which the effect is half-maximal) came to 3920 nM.
For the molecule `COC(=O)c1ccnc(CN(C(=O)[C@@H](N)Cc2c(C)cc(C(N)=O)cc2C)[C@@H](C)c2nc(-c3ccccc3)c[nH]2)c1` [Cpd 312], the EC50 stood at 58.7 nM.
As to `Cc1cc(C(N)=O)cc(C)c1C[C@H](N)C(=O)N(Cc1ccnc(C(=O)O)c1)[C@@H](C)c1nc(-c2ccccc2)c[nH]1` [Cpd 316], the half-maximal effective concentration (EC50) turned out to be 24.1 nM.

The next assay addresses T2, human mu opioid receptor (Homo sapiens, UniProt P35372).
T2 construct: purchased Perkin Elmer RBHOMM400UA; host or cells: Chinese Hamster Ovary cells (recombinant expression)
Put plainly: Human Mu Opioid Receptor Binding Assay (CHO membranes, 3H-Damgo). The settings on record: read-out: hKi μ. The procedure:
Membranes from Chinese Hamster Ovary cells expressing the human […] opioid receptor (Perkin Elmer #RBHOMM400UA) are homogenized in assay buffer (50 mM Tris, pH 7.5 with 5 mM MgCl2) using a glass tissue grinder, Teflon pestle and a Steadfast Stirrer (Fisher Scientific). The concentration of membranes is adjusted to 300 μg/mL in assay buffer and 100 μL is dispensed into each well of the assay plate, a 96 well round bottom polypropylene plate. Compounds to be tested are solubilized in DMSO (Pierce), 10 mM, then diluted in assay buffer to 6× the desired final concentration. The ligand, ^3H-Damgo (Perkin Elmer #NET-902) is also diluted in assay buffer to 3.6 nM. In a second 96 well round bottom polypropylene plate, known as the premix plate, 60 μL of the 6× compound is combined with 60 μL of 3.6 nM ^3H-Damgo. From this premix plate 50 μL is transferred to the assay plate containing the membranes, in duplicate. The assay plate is incubated for 2 h at room temperature. A GF/C 96 well filter plate (Perkin Elmer #6005174) is pretreated with 0.3% polyethylenimine for 30 min. The contents of the assay plate are filtered through the filter plate using a Packard Filtermate Harvester, and washed 3 times with 0.9% saline that is 4° C. The filter plate is dried, the underside sealed, and 30 μL Microscint20 (Packard #6013621) added to each well. A Topcount-NXT Microplate Scintillation Counter (Packard) is used to measure emitted energies in the range of 2.9 to 35 KeV. […] Nonspecific binding is determined in the presence of 1 μM unlabelled Damgo (Tocris #1171).
Turning to `Cc1cc(O)cc(C)c1C[C@H](N)C(=O)N(Cc1nc(-c2ccc(CO)cc2)c(C)[nH]1)C(C)C` [Cpd 39], the Ki stood at 0.9 nM.
For `COc1cccc(CN(C(=O)[C@@H](N)Cc2c(C)cc(O)cc2C)[C@@H](C)c2nc(-c3ccccc3)c[nH]2)c1` [Cpd 33], the Ki worked out at 6.9 nM.
Turning to `Cc1cc(O)cc(C)c1C[C@H](N)C(=O)N(Cc1nc(-c2ccc(C(=O)O)c(F)c2)c(C)[nH]1)C(C)C` [Cpd 37], the Ki was 183 nM.
Still for that read-out and setting: under `Cc1cc(C(N)=O)cc(C)c1C[C@H](N)C(=O)N(Cc1ccccc1)[C@@H](C)c1nc(-c2ccc(C(F)(F)F)cc2)c[nH]1` [Cpd 42] stands 5.8 nM.
`COc1ccc(CN(C(=O)[C@@H](N)Cc2c(C)cc(O)cc2C)[C@H](COCc2ccccc2)c2nc(-c3ccccc3)c[nH]2)cc1OC` [Cpd 22]: the Ki is approximately 200 nM.
For `COc1ccc(CN(C(=O)[C@@H](N)Cc2c(C)cc(C(N)=O)cc2C)[C@@H](C)c2nc(-c3ccccc3C(N)=O)c[nH]2)cc1OC` [Cpd 28], the Ki was determined as 44 nM.
The same measure, in the same setting: under `Cc1cc(O)cc(C)c1C[C@H](N)C(=O)N(Cc1nc(-c2cccc(NS(C)(=O)=O)c2)c(C)[nH]1)C(C)C` [Cpd 45] stands 1.2 nM; under `Cc1cc(O)cc(C)c1C[C@H](N)C(=O)N(Cc1nc(-c2ccc(OC(F)(F)F)cc2)c(C)[nH]1)C(C)C` [Cpd 44], 8.7 nM; under `C[C@@H](c1nc(Cc2ccccc2)c[nH]1)N(C)C(=O)[C@@H](N)Cc1ccc(O)cc1` [Cpd 204], 7.7 nM.
For the molecule `Cc1cc(O)cc(C)c1C[C@H](N)C(=O)N(Cc1ccc(OCc2ccccc2)c(OCc2ccccc2)c1)[C@@H](C)c1nc(-c2ccccc2)c[nH]1` [Cpd 30], the Ki was found to be 34 nM.
Take `Cc1cc(O)cc(C)c1C[C@H](N)C(=O)N(CC(=O)O)Cc1nc(-c2ccccc2)c[nH]1` [Cpd 129]: the Ki worked out at 25.3 nM.
`Cc1cc(O)cc(C)c1C[C@H](N)C(=O)N(Cc1nc(-c2ccc(CCC(=O)O)cc2)c(C)[nH]1)C(C)C` [Cpd 46]: the Ki was 35 nM.
As for `COC(=O)c1cc(CN(C(=O)[C@@H](N)Cc2c(C)cc(O)cc2C)[C@@H](C)c2nc(-c3ccccc3)c[nH]2)ccc1OC` [Cpd 268], the Ki was 5.79 nM.
For `Cc1cc(C(=O)O)cc(C)c1C[C@H](N)C(=O)N(Cc1ccc(C(=O)O)cc1)[C@@H](C)c1nc(-c2ccccc2)c[nH]1` [Cpd 49], the Ki is 48 nM.
In the case of `COC(=O)c1cc(CN(C(=O)[C@@H](N)Cc2ccccc2)[C@@H](C)c2nc(-c3ccccc3)c[nH]2)ccc1OC` [Cpd 266], the Ki was found to be 69 nM.
With `Cc1cc(O)cc(C)c1C[C@H](N)C(=O)N(Cc1nc(C=Cc2ccccc2)c(C)[nH]1)C(C)C` [Cpd 38], the Ki is 19 nM.
Still for that read-out and setting: under `COc1ccc(CN(C(=O)[C@@H](N)Cc2c(C)cc(C(N)=O)cc2C)[C@@H](C)c2nc(-c3ccccc3C#N)c[nH]2)cc1OC` [Cpd 27] stands 30 nM.
As to `COc1ccc(CN(C(=O)[C@@H](N)Cc2c(C)cc(C(N)=O)cc2C)[C@@H](C)c2nc(-c3cccc(C(N)=O)c3)c[nH]2)cc1OC` [Cpd 23], the Ki came to 34.3 nM.
As to `COc1cc(Br)c(CN(C(=O)[C@@H](N)Cc2c(C)cc(C(N)=O)cc2C)[C@@H](C)c2nc(-c3ccccc3)c[nH]2)cc1OC` [Cpd 229], the Ki is 12 nM.
In the case of `Cc1cc(O)cc(C)c1C[C@H](N)C(=O)N(Cc1nc(-c2cccc(OC(F)(F)F)c2)c(C)[nH]1)C(C)C` [Cpd 43], the Ki was found to be 6.9 nM.
On to `COc1ccc(CN(C(=O)[C@@H](N)Cc2c(C)cc(O)cc2C)[C@@H](C)c2nc(-c3ccccc3)c[nH]2)cc1` [Cpd 32], for which the Ki is 6.8 nM.
For `Cc1cc(C(N)=O)cc(C)c1C[C@H](N)C(=O)N(Cc1ccc(C(=O)O)cc1)[C@@H](C)c1nc(-c2cccc3ccccc23)c[nH]1` [Cpd 13], the Ki amounted to 4.8 nM.
Consider `COC(=O)c1cccc(CN(C(=O)[C@@H](N)Cc2c(C)cc(C(N)=O)cc2C)[C@@H](C)c2nc(-c3cccc4ccccc34)c[nH]2)c1` [Cpd 10], for which the Ki turned out to be 15.5 nM.
For the molecule `Cc1cc(C(N)=O)cc(C)c1C[C@H](N)C(=O)N(Cc1ccccc1)[C@H](C)c1nc(-c2ccccc2)c[nH]1` [Cpd 113], the Ki was determined as 16 nM.
With `COc1ccc(CN(C(=O)[C@@H](N)Cc2c(C)cc(C(N)=O)cc2C)[C@@H](C)c2nc(-c3cccc(Br)c3)c[nH]2)cc1OC` [Cpd 19], the Ki was 18.2 nM.
For the molecule `Cc1cc(O)cc(C)c1C[C@H](N)C(=O)N(Cc1nc(-c2cc(N)cc(C(=O)O)c2)c(C)[nH]1)C(C)C` [Cpd 47], the Ki was 22 nM.
`Cc1cc(C(N)=O)cc(C)c1C[C@H](N)C(=O)N(Cc1ccccc1C#N)[C@@H](C)c1nc(-c2ccccc2)c[nH]1` [Cpd 2]: the Ki amounted to 2.9 nM.
For the molecule `COc1ccc(CN(C(=O)[C@@H](N)Cc2c(C)cc(C(N)=O)cc2C)[C@@H](C)c2nc(-c3cccc(C#N)c3)c[nH]2)cc1OC` [Cpd 24], the Ki worked out at 9.3 nM.
`Cc1cc(O)cc(C)c1C[C@H](N)C(=O)N(Cc1ccc(O)c(O)c1)[C@@H](C)c1nc(-c2ccccc2)c[nH]1` [Cpd 15]: the Ki stood at 285 nM.
In the case of `COc1ccc(CN(C(=O)[C@@H](N)Cc2c(C)cc(C(N)=O)cc2C)[C@@H](C)c2nc(-c3ccccc3Br)c[nH]2)cc1OC` [Cpd 26], the Ki came to 17 nM.
As for `Cc1cc(C(N)=O)cc(C)c1C[C@H](N)C(=O)N(Cc1ccccc1Br)[C@@H](C)c1nc(-c2ccccc2)c[nH]1` [Cpd 3], the Ki stood at 13 nM.
Consider `Cc1cc(O)cc(C)c1C[C@H](N)C(=O)N(Cc1nc(-c2ccc(C#N)cc2)c(C)[nH]1)C(C)C` [Cpd 41], for which the Ki was 1.6 nM.
In the case of `CN[C@@H](Cc1ccc(OCc2ccccc2)cc1)C(=O)N(Cc1ccc(OC)c(C(=O)O)c1)[C@@H](C)c1nc(-c2ccccc2)c[nH]1` [Cpd 274], the Ki is more than 1000 nM.
Regarding `CC(C)[C@@H](c1nc(-c2ccccc2)c[nH]1)N(C(=O)[C@@H](N)Cc1cccc(C(N)=O)c1)C(C)C` [Cpd 137], the Ki came to 445 nM.
Still for that read-out and setting: the value for `COC(=O)c1cc(CN(Cc2nc(-c3ccccc3)c[nH]2)C(=O)[C@@H](N)Cc2c(C)cc(C(N)=O)cc2C)ccc1OC` [Cpd 7] was 6.8 nM.
On the same count and under the same terms, the value for `Cc1cc(O)cc(C)c1C[C@H](N)C(=O)N(Cc1nc(-c2ccccc2)c[nH]1)C(c1ccccc1)c1ccccc1` [Cpd 40] was 152 nM.
Take `Cc1[nH]c(CN(C(=O)[C@@H](N)Cc2ccc(O)cc2)C(C)C)nc1-c1cncnc1` [Cpd 132]: the Ki stood at 166 nM.
With `COc1ccc(CN(C(=O)[C@@H](N)Cc2c(C)cc(O)cc2C)[C@@H](COCc2ccccc2)c2nc(-c3ccccc3)c[nH]2)cc1OC` [Cpd 21], the Ki was determined as 37.6 nM.
As for `Cc1cc(O)cc(C)c1C[C@H](N)C(=O)N(CC1CCNCC1)[C@@H](C)c1nc(-c2ccccc2)c[nH]1` [Cpd 16], the Ki came out at 16 nM.
Consider `COc1ccc(CN(Cc2nc(-c3ccccc3)c[nH]2)C(=O)[C@@H](N)Cc2c(C)cc(O)cc2C)cc1OC` [Cpd 35], for which the Ki is 2.8 nM.
Regarding `Cc1cc(C(N)=O)cc(C)c1C[C@H](N)C(=O)N(C1CCCCC1)[C@H](C)c1nc(-c2ccccc2)c[nH]1` [Cpd 128], the Ki was determined as 58 nM.
Same read-out and setting: the value for `COc1ccc(CN(C(=O)[C@@H](N)Cc2c(C)cc(O)cc2C)[C@@H](C)c2nc(-c3ccccc3)c[nH]2)c(OC)c1` [Cpd 34] was 19 nM.
